Assay results from US9156796B2, “Benzoimidazole-carboxylic acid amide derivatives as APJ receptor modulators” (SANOFI, priority 2013, dated 2015).

Each compound was assayed against T1, human apelin receptor (Homo sapiens, UniProt P35414) (assay: Determination of agonism on the human apelin receptor by a calcium fluorescence assay (FLIPR)). Details: HEK293 cells stably transfected with human apelin receptor and Giaq protein, Fluo-4 calcium fluorescence, read-out: EC50 (APJ agonism).
T1 construct: expressed in transfected cells
T1 sequence (P35414 1-380): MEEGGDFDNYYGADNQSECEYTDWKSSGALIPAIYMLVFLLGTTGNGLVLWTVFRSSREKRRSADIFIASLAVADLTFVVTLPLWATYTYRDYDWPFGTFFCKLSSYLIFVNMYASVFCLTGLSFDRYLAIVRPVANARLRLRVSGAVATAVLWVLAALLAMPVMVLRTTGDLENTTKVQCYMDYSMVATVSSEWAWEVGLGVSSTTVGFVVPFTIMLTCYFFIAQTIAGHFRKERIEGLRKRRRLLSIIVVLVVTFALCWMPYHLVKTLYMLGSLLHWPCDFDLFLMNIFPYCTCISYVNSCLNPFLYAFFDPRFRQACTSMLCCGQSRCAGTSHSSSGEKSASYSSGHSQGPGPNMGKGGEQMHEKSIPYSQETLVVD
Format: cell-based
In short: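 HEK293 cells stably co-expressing human apelin receptor and promiscuous Giaq, loaded 1 h at 37 °C with Fluo-4 (4 μM) in probenecid-containing Hepes buffer, pH 7.4. Compounds, at least 7 concentrations in triplicate, added in FLIPR Tetra; peak calcium fluorescence normalized to 1 μM apelin-13 as 100% to derive EC50.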
`CCC(CC)n1c(Cc2cccs2)nc2cc(C(=O)N[C@@H](CC(C)C)C(=O)N(C)Cc3ccccc3OC)ccc21` [Example 256, 1-(1-Ethyl-propyl)-2-thiophen-2-ylmethyl-1H-benzoimidazole-5-carboxylic acid {(S)-1-[(2-methoxy-benzyl)-methyl-carbamoyl]-3-methyl-butyl}-amide] gave an EC50 of 5.92 µM. Compound `CCC(CC)n1c(Cc2cscn2)nc2cc(C(=O)N[C@@H](CC(C)C)C(=O)O)ccc21` [Example 84, (S)-2-{[1-(1-Ethyl-propyl)-2-thiazol-4-ylmethyl-1H-benzoimidazole-5-carbonyl]-amino}-4-methyl-pentanoic acid] has an EC50 of 2.95 µM. With `CC1CCCCC1n1c(Cc2cccs2)nc2cc(C(=O)N[C@@H](CC3CCCCC3)C(=O)O)ccc21` (single isomer, unassigned) [Example 425] the EC50 was 2.68 µM. `CC(C)C[C@@H](CC(=O)O)NC(=O)c1ccc2c(c1)nc(Cc1cccs1)n2C1CCCCC1C(F)(F)F` (stereo partly drawn) [Example 102, (S)-5-Methyl-3-{[2-thiophen-2-ylmethyl-1-(2-trifluoromethyl-cyclohexyl)-1H-benzoimidazole-5-carbonyl]-amino}-hexanoic acid] showed an EC50 of 0.247 µM. Compound `CCCC[C@@H](CO)NC(=O)c1ccc2c(c1)nc(Cc1cccs1)n2C(CC)CC` [Example 199, 1-(1-Ethyl-propyl)-2-thiophen-2-ylmethyl-1H-benzoimidazole-5-carboxylic acid ((S)-1-hydroxymethyl-pentyl)-amide] has an EC50 of 0.71 µM. Work on `CCC(CC)n1c(Cc2cccs2)nc2cc(C(=O)N[C@@H](CC(C)C)C(=O)NCCOC(C)C)ccc21` [Example 371, 1-(1-Ethyl-propyl)-2-thiophen-2-ylmethyl-1H-benzoimidazole-5-carboxylic acid [(S)-1-(2-isopropoxy-ethylcarbamoyl)-3-methyl-butyl]-amide] yielded an EC50 of 3.57 µM. Compound `CCC(CC)n1c(Cc2cccs2)nc2cc(C(=O)N[C@@H](CC(C)C)C(=O)NCCC3CCOCC3)ccc21` [Example 382, 1-(1-Ethyl-propyl)-2-thiophen-2-ylmethyl-1H-benzoimidazole-5-carboxylic acid {(S)-3-methyl-1-[2-(tetrahydro-pyran-4-yl)-ethylcarbamoyl]-butyl}-amide] has an EC50 of 3.56 µM. `C[C@@H]1CCCC[C@H]1n1c(Cc2cccs2)nc2cc(C(=O)NC(CCC(F)(F)F)C(=O)O)ccc21` (stereo partly drawn) [Example 27, 5,5,5-Trifluoro-2-{[1-((1R,2R)-2-methyl-cyclohexyl)-2-thiophen-2-ylmethyl-1H-benzoimidazole-5-carbonyl]-amino}-pentanoic acid] showed an EC50 of 1.86 µM. For `CCCOCCNC(=O)[C@H](CC(C)C)NC(=O)c1ccc2c(c1)nc(Cc1cccs1)n2C(CC)CC` [Example 385, 1-(1-Ethyl-propyl)-2-thiophen-2-ylmethyl-1H-benzoimidazole-5-carboxylic acid [(S)-3-methyl-1-(2-propoxy-ethylcarbamoyl)-butyl]-amide], the EC50 was 2.51 µM. With `CCC(CC)n1c(CC2CCCO2)nc2cc(C(=O)N[C@@H](CC(C)C)C(=O)O)ccc21` (stereo partly drawn) [Example 80, (S)-2-{[1-(1-Ethyl-propyl)-2-(tetrahydro-furan-2-ylmethyl)-1H-benzoimidazole-5-carbonyl]-amino}-4-methyl-pentanoic acid] the EC50 was 1.67 µM. In the case of `CCC(CC)n1c(Cc2cccs2)nc2cc(C(=O)N[C@@H](CO)C3CCCCC3)ccc21` [Example 203, 1-(1-Ethyl-propyl)-2-thiophen-2-ylmethyl-1H-benzoimidazole-5-carboxylic acid ((R)-1-cyclohexyl-2-hydroxy-ethyl)-amide], the EC50 is reported as 24.7 µM. In the case of `CC1CCCCC1n1c(Cc2cccs2)nc2cc(C(=O)N[C@@H](CC3CCCCC3)C(=O)O)ccc21` (single isomer, unassigned) [Example 424], the EC50 is reported as 0.389 µM. For `CC(C)C[C@H](NC(=O)c1ccc2c(c1)nc(Cc1cccs1)n2C1CCCC1C)C(=O)O` (single isomer, unassigned) [Example 430], the EC50 was 1.31 µM. `CCC(CC)n1c(Cc2cccs2)nc2cc(C(=O)N[C@@H](CC(C)C)CS(=O)(=O)NC)ccc21` [Example 485, 1-(1-Ethyl-propyl)-2-thiophen-2-ylmethyl-1H-benzoimidazole-5-carboxylic acid ((S)-3-methyl-1-methylsulfamoylmethyl-butyl)-amide] was tested, and the EC50 was 0.813 µM. With `CC(C)C[C@H](NC(=O)c1ccc2c(c1)nc(Cc1cccs1)n2C1CCCCC1C)C(=O)O` (single isomer, unassigned) [Example 415] the EC50 was 0.532 µM. Work on `CC(C)C[C@H](NC(=O)c1ccc2c(c1)nc(Cc1ccsc1)n2-c1ccccc1)C(=O)O` [Example 136, (S)-4-Methyl-2-[(1-phenyl-2-thiophen-3-ylmethyl-1H-benzoimidazole-5-carbonyl)-amino]-pentanoic acid] yielded an EC50 of 2.7 µM. Compound `CCC[C@H](NC(=O)c1ccc2c(c1)nc(Cc1cccs1)n2C1CCCCC1C(F)(F)F)C(=O)O` (stereo partly drawn) [Example 88, (S)-2-{[2-Thiophen-2-ylmethyl-1-(2-trifluoromethyl-cyclohexyl)-1H-benzoimidazole-5-carbonyl]-amino}-pentanoic acid] has an EC50 of 0.754 µM. With `CCC(CC)n1c(Cc2cccs2)nc2cc(C(=O)N[C@@H](CC(C)C)C(=O)NCc3ccco3)ccc21` [Example 221, 1-(1-Ethyl-propyl)-2-thiophen-2-ylmethyl-1H-benzoimidazole-5-carboxylic acid {(S)-1-[(furan-2-ylmethyl)-carbamoyl]-3-methyl-butyl}-amide] the EC50 was 1.83 µM. In the case of `CCC(CC)n1c(Cc2cccs2)nc2cc(C(=O)N[C@@H](CC(C)C)C(=O)NCCCCN(CC)CC)ccc21` [Example 261, 1-(1-Ethyl-propyl)-2-thiophen-2-ylmethyl-1H-benzoimidazole-5-carboxylic acid [(S)-1-(4-diethylamino-butylcarbamoyl)-3 methyl-butyl]-amide], the EC50 is reported as 0.269 µM. `CCC(CC)n1c(Cc2ccccc2)nc2cc(C(=O)N[C@@H](CC(C)C)C(=O)O)ccc21` [Example 116, (S)-2-{[2-Benzyl-1-(1-ethyl-propyl)-1H-benzoimidazole-5-carbonyl]-amino}-4-methyl-pentanoic acid] was tested, and the EC50 was 6.71 µM. Compound `CC[C@H](C)[C@@H](CCC(=O)O)NC(=O)c1ccc2c(c1)nc(Cc1cccs1)n2[C@@H]1CCCC[C@H]1C` [Example 72, (4R,5S)-5-Methyl-4-{[1-((1R,2R)-2-methyl-cyclohexyl)-2-thiophen-2-ylmethyl-1H-benzoimidazole-5-carbonyl]-amino}-heptanoic acid] has an EC50 of 0.047 µM. `CC(C)C[C@H](NC(=O)c1ccc2c(c1)nc(Cc1cccs1)n2-c1ccccc1Cl)C(=O)O` [Example 165, (S)-2-{[1-(2-Chloro-phenyl)-2-thiophen-2-ylmethyl-1H-benzoimidazole-5-carbonyl]-amino}-4-methyl-pentanoic acid] gave an EC50 of 1.01 µM. With `CCC(CC)C(CC(=O)O)NC(=O)c1ccc2c(c1)nc(Cc1cccs1)n2C(CC)CC` (stereo not drawn) [Example 59, 4-Ethyl-3-{[1-(1-ethyl-propyl)-2-thiophen-2-ylmethyl-1H-benzoimidazole-5-carbonyl]-amino}-hexanoic acid] the EC50 was 0.576 µM. For `CC(C)C[C@H](NC(=O)c1ccc2c(c1)nc(Cc1ccoc1)n2C1CCCCC1)C(=O)O` [Example 138, (S)-2-[(1-Cyclohexyl-2-furan-3-ylmethyl-1H-benzoimidazole-5-carbonyl)-amino]-4-methyl-pentanoic acid], the EC50 was 2.93 µM. In the case of `CC(C)C[C@H](NC(=O)c1ccc2c(c1)nc(Cc1ccccc1)n2C1CCCCC1C)C(=O)O` (stereo partly drawn) [Example 143, (S)-2-{[2-Benzyl-1-(2-methyl-cyclohexyl)-1H-benzoimidazole-5-carbonyl]-amino}-4-methyl-pentanoic acid], the EC50 is reported as 2.45 µM. With `CCC(CC)n1c(Cc2ccco2)nc2cc(C(=O)N[C@H](CC(=O)O)CC(C)C)ccc21` [Example 96, (S)-3-{[1-(1-Ethyl-propyl)-2-furan-2-ylmethyl-1H-benzoimidazole-5-carbonyl]-amino}-5-methyl-hexanoic acid] the EC50 was < 0.041 µM. With `CCC(CC)n1c(Cc2cccs2)nc2cc(C(=O)N[C@@H](CC(C)C)C(=O)N3CCN(c4ccc(F)cc4)CC3)ccc21` [Example 270, 1-(1-Ethyl-propyl)-2-thiophen-2-ylmethyl-1H-benzoimidazole-5-carboxylic acid {(S)-1-[4-(4-fluoro-phenyl)-piperazine-1-carbonyl]-3-methyl-butyl}-amide] the EC50 was 10.8 µM. `CCC(CC)n1c(Cc2cccs2)nc2cc(C(=O)N[C@@H](CC(C)C)C(=O)NCc3cccc(N(C)C)c3)ccc21` [Example 252, 1-(1-Ethyl-propyl)-2-thiophen-2-ylmethyl-1H-benzoimidazole-5-carboxylic acid [(S)-1-(3-dimethylamino-benzylcarbamoyl)-3-methyl-butyl]-amide] showed an EC50 of 6.99 µM. In the case of `CCC(CC)n1c(Cc2cccs2)nc2cc(C(=O)N[C@@H](CC(C)C)C(=O)N3CCN(c4cccc(C(F)(F)F)c4)CC3)ccc21` [Example 269, 1-(1-Ethyl-propyl)-2-thiophen-2-ylmethyl-1H-benzoimidazole-5-carboxylic acid {(S)-3-methyl-1-[4-(3-trifluoromethyl-phenyl)-piperazine-1-carbonyl]-butyl}-amide], the EC50 is reported as 18.5 µM. `CCCCC(CC(=O)O)NC(=O)c1ccc2c(c1)nc(Cc1cccs1)n2[C@@H]1CCCC[C@H]1C` (single isomer, unassigned) [Example 460] was tested, and the EC50 was 0.122 µM.
